Experimental data: patent US20260224566A1, “Obicetrapib and Ezetimibe Combination Treatment and Fixed Dose Pharmaceutical Compositions” (NewAmsterdam Pharma B.V., priority 2023, published 2026)

Test system: participants currently receiving high-intensity statin therapy
Experiment: ROSE2 Phase 2b clinical trial: LDL-C and other lipid efficacy endpoints
Format: in vivo, human
Description: The primary objective of this study is to evaluate the effect of obicetrapib 10 mg+ezetimibe 10 mg combination therapy compared with placebo, when used as an adjunct to high-intensity statin therapy, on LDL-C at Day 84.
The secondary objectives of this study include the following, in hierarchical order: • To evaluate the effect of obicetrapib 10 mg monotherapy compared with placebo, when used as an adjunct to high-intensity statin therapy, on LDL-C at Day 84; • To evaluate the effect of obicetrapib 10 mg+ezetimibe 10 mg combination therapy compared with placebo, when used as an adjunct to high-intensity statin therapy, on ApoB at Day 84; and • To evaluate the effect of obicetrapib 10 mg monotherapy compared with placebo, when used as an adjunct to high-intensity statin therapy, on ApoB at Day 84.
This study will be a placebo-controlled, double-blind, randomized, Phase 2 study to evaluate the efficacy, safety, and tolerability of obicetrapib 10 mg, both in combination with ezetimibe 10 mg and as monotherapy, as an adjunct to high-intensity statin therapy. This study will take place at approximately 20 sites in the United States.
Up to 2 weeks after the Screening Visit, participants will return to the site on Day 1 (Visit 2) and confirm study eligibility before being randomized and beginning treatment. Approximately 114 eligible participants (38 participants per treatment group) will be randomized in a 1:1:1 ratio to 1 of the following treatment groups: • Combination therapy: Obicetrapib 10 mg+ezetimibe 10 mg (administered as one 10 mg obicetrapib tablet and one 10 mg ezetimibe capsule); • Obicetrapib monotherapy: Obicetrapib 10 mg (administered as one 10 mg obicetrapib tablet and 1 placebo capsule); or. • Placebo (administered as 1 placebo tablet and 1 placebo capsule).
During the 12-week Treatment Period, the assigned study drugs will be administered by the participants orally with water, once daily on Day 1 to Day 84 at approximately the same time each morning. Participants will return to the site on Day 28 (±2 days), Day 84 (±2 days), and Day 112 (±2 days) for efficacy, safety, and pharmacokinetic (PK) assessments. Participants, Investigators, the Clinical Research Organization (CRO), and the Sponsor will be blinded to all lipid results from Day 1 (Visit 2) for the first participant until all enrolled participants complete the Day 84 (End of Treatment) visit or are withdrawn from the study, in order to protect blinding to treatment assignment.
The primary efficacy endpoint is the percent change from Day 1 to Day 84 in LDL-C for the obicetrapib 10 mg+ezetimibe 10 mg combination treatment group compared with the placebo group.
The secondary efficacy endpoints include the following, in hierarchical order: • Percent change from Day 1 to Day 84 in LDL-C for the obicetrapib 10 mg monotherapy. • treatment group compared with the placebo group; • Percent change from Day 1 to Day 84 in ApoB for the obicetrapib 10 mg+ezetimibe 10 mg • combination treatment group compared with the placebo group; and • Percent change from Day 1 to Day 84 in ApoB for the obicetrapib 10 mg monotherapy treatment group compared with the placebo group.
The exploratory efficacy endpoints include the following: • Percent change from Day 1 to Day 84 in non-HDL-C, VLDL-C, HDL-C, TG, ApoE, Lp(a), and HDL-ApoE for the obicetrapib 10 mg+ezetimibe 10 mg combination treatment group compared with the placebo group and for the obicetrapib 10 mg monotherapy treatment group compared with the placebo group; and • Proportion of participants at Day 84 that achieve LDL-C <2.6 mmol/L (<100 mg/dL), LDL-C <1.8 mmol/L (<70 mg/dL), and LDL-C <1.3 mmol/L (<50 mg/dL) for the obicetrapib 10 mg+ezetimibe 10 mg combination treatment group compared with the placebo group and for the obicetrapib 10 mg monotherapy treatment group compared with the placebo group. […]

[1] = Exploratory Population, 10 mg each drug
[2] = mITT Population, 10 mg each drug

For CCOC(=O)N1c2ccc(C(F)(F)F)cc2[C@@H](N(Cc2cc(C(F)(F)F)cc(C(F)(F)F)c2)c2ncc(OCCCC(=O)O)cn2)C[C@H]1CC [obicetrapib, {4-[(2-{[3,5-bis(trifluoromethyl)benzyl] [(2R,4S)-1-(ethoxycarbonyl)-2-ethyl-6-(trifluoromethyl)-1,2,3,4-tetrahydroquinolin-4-yl]amino}pyrimidin-5-yl)oxy]butanoic acid}], the “ApoB Change from Baseline to Day 28, Maximum” value [1] was -1 mg/dL, the “ApoB Change from Baseline to Day 28, Median” value [1] was -23.0 mg/dL and the “ApoB Change from Baseline to Day 28, Minimum” value [1] was -55 mg/dL. For the same compound, the “ApoB Change from Baseline to Day 84, Maximum” value [1] was 19 mg/dL, the “ApoB Change from Baseline to Day 84, Minimum” value [1] was -52 mg/dL and the “ApoB Percent Change from Baseline to Day 28, Maximum” value [1] was −3.0%. For the same compound, the “ApoB Percent Change from Baseline to Day 28, Mean” value [1] was −26.00%, the “ApoB Percent Change from Baseline to Day 28, Median” value [1] was −26.00% and the “ApoB Percent Change from Baseline to Day 28, Minimum” value [1] was −47.4%. The “ApoB Percent Change from Baseline to Day 84, Maximum” value [1] was 27.1%, the “ApoB Percent Change from Baseline to Day 84, Minimum” value [1] was −44.8% and the “LDL-C Change from Baseline to Day 28, Maximum” value [1] was -11 mg/dL. For the same compound, the “LDL-C Change from Baseline to Day 28, Mean” value [1] was -43.0 mg/dL, the “LDL-C Change from Baseline to Day 28, Median” value [1] was -45.0 mg/dL and the “LDL-C Change from Baseline to Day 28, Minimum” value [1] was -87 mg/dL. For the same compound, the “LDL-C Change from Baseline to Day 84, Maximum” value [1] was 24 mg/dL, the “LDL-C Change from Baseline to Day 84, Minimum” value [1] was -112 mg/dL and the “LDL-C Percent Change from Baseline to Day 28, Maximum” value [1] was −10.4%. For the same compound, the “LDL-C Percent Change from Baseline to Day 28, Minimum” value [1] was −82.0%, the “LDL-C Percent Change from Baseline to Day 84, Maximum” value [1] was 22.6% and the “LDL-C Percent Change from Baseline to Day 84, Minimum” value [1] was −78.4%. For the same compound, the “Lp(a) Change from Baseline to Day 84, Maximum” value [1] was 3.0 nmol/L, the “ApoB at Day 28, Maximum” value [1] was 110 mg/dL and the “ApoB at Day 28, Mean” value [1] was 65.4 mg/dL. The “ApoB at Day 28, Median” value [1] was 64.5 mg/dL, the “ApoB at Day 28, Minimum” value [1] was 32 mg/dL and the “LDL-C at Day 28, Maximum” value [1] was 136 mg/dL. The “LDL-C at Day 28, Mean” value [1] was 57.6 mg/dL, the “LDL-C at Day 28, Median” value [1] was 51.5 mg/dL and the “LDL-C at Day 28, Minimum” value [1] was 16 mg/dL. For the same compound, the “ApoB at Day 84, Maximum” value [1] was 123 mg/dL, the “ApoB at Day 84, Mean” value [1] was 69.1 mg/dL and the “ApoB at Day 84, Median” value [1] was 65.0 mg/dL. The “ApoB at Day 84, Minimum” value [1] was 30 mg/dL, the “LDL-C at Day 84, Maximum” value [1] was 148 mg/dL and the “LDL-C at Day 84, Mean” value [1] was 60.7 mg/dL. For the same compound, the “LDL-C at Day 84, Median” value [1] was 55.5 mg/dL, the “LDL-C at Day 84, Minimum” value [1] was 21 mg/dL and the “Lp(a) at Day 84, Maximum” value [1] was 327.7 nmol/L. For the same compound, the “Lp(a) at Day 84, Mean” value [1] was 74.75 nmol/L, the “Lp(a) at Day 84, Median” value [1] was 20.85 nmol/L and the “Lp(a) at Day 84, Minimum” value [1] was 2.8 nmol/L. For the same compound, the “median reduction in LDL-C” value (ROSE2, obicetrapib 10 mg with or without ezetimibe 10 mg, adjunct to high-intensity statin) was 39%, the “ApoB Change from Baseline to Day 28, Maximum” value [2] was 50 mg/dL and the “ApoB Change from Baseline to Day 28, Median” value [2] was -20.0 mg/dL. For the same compound, the “ApoB Change from Baseline to Day 28, Minimum” value [2] was -85 mg/dL, the “ApoB Change from Baseline to Day 84, Maximum” value [2] was 67 mg/dL and the “ApoB Change from Baseline to Day 84, Minimum” value [2] was -52 mg/dL. The “ApoB Percent Change from Baseline to Day 28, Maximum” value [2] was 64.9%, the “ApoB Percent Change from Baseline to Day 28, Minimum” value [2] was −62.0% and the “ApoB Percent Change from Baseline to Day 84, Maximum” value [2] was 100.0%. For the same compound, the “ApoB Percent Change from Baseline to Day 84, Mean” value [2] was −9.50%, the “ApoB Percent Change from Baseline to Day 84, Minimum” value [2] was −44.8% and the “LDL-C Change from Baseline to Day 28, Maximum” value [2] was 64 mg/dL. The “LDL-C Change from Baseline to Day 28, Median” value [2] was -35.0 mg/dL, the “LDL-C Change from Baseline to Day 28, Minimum” value [2] was -121 mg/dL and the “LDL-C Change from Baseline to Day 84, Maximum” value [2] was 98 mg/dL. For the same compound, the “LDL-C Change from Baseline to Day 84, Minimum” value [2] was -112 mg/dL, the “LDL-C Percent Change from Baseline to Day 28, Maximum” value [2] was 70.3% and the “LDL-C Percent Change from Baseline to Day 28, Minimum” value [2] was −82.0%. For the same compound, the “LDL-C Percent Change from Baseline to Day 84, Maximum” value [2] was 161.5%, the “LDL-C Percent Change from Baseline to Day 84, Minimum” value [2] was −78.4% and the “Lp(a) Change from Baseline to Day 84, Maximum” value [2] was 22.0 nmol/L. For the same compound, the “Lp(a) Change from Baseline to Day 84, Median” value [2] was -4.50 nmol/L, the “ApoB at Day 28, Maximum” value [2] was 140 mg/dL and the “ApoB at Day 28, Mean” value [2] was 73.4 mg/dL. For the same compound, the “ApoB at Day 28, Median” value [2] was 66.0 mg/dL, the “ApoB at Day 28, Minimum” value [2] was 32 mg/dL and the “LDL-C at Day 28, Maximum” value [2] was 169 mg/dL. The “LDL-C at Day 28, Mean” value [2] was 70.3 mg/dL, the “LDL-C at Day 28, Median” value [2] was 56.0 mg/dL and the “LDL-C at Day 28, Minimum” value [2] was 16 mg/dL. The “ApoB at Day 84, Maximum” value [2] was 147 mg/dL, the “ApoB at Day 84, Mean” value [2] was 82.4 mg/dL and the “ApoB at Day 84, Median” value [2] was 72.0 mg/dL. The “ApoB at Day 84, Minimum” value [2] was 30 mg/dL, the “LDL-C at Day 84, Maximum” value [2] was 196 mg/dL and the “LDL-C at Day 84, Mean” value [2] was 82.7 mg/dL. The “LDL-C at Day 84, Median” value [2] was 65.0 mg/dL, the “LDL-C at Day 84, Minimum” value [2] was 21 mg/dL and the “Lp(a) at Day 84, Maximum” value [2] was 327.7 nmol/L. For the same compound, the “Lp(a) at Day 84, Mean” value [2] was 77.96 nmol/L, the “Lp(a) at Day 84, Median” value [2] was 26.25 nmol/L and the “Lp(a) at Day 84, Minimum” value [2] was 2.8 nmol/L.
